The record followed here is patent publication US20190184064A1, “Composition for Soft Tissue Augmentation Providing Protection from Infection” (priority 2015, published 2019).

Assay [1] has as its system Pseudomonas aeruginosa (PAO1). Put plainly: Solution exposure of antimicrobial hyaluronic acid hydrogels to living cultures (PAO1). It counts as cell-based. Particulars: 20 μl early phase culture in 980 μl formulation. The procedure:
(§1) By way of Examples, the following evaluations were done to assess the performance of the antimicrobial hyaluronic acid gels. Solution exposure of the antimicrobial hyaluronic acid hydrogels immersed in early phase concentrations of 2 test microorganisms were conducted. Additionally, the physical properties of the hydrogels were assessed to determine their shear/thixotropic properties.
(§2) In this study, two strains of bacteria, namely Pseudomonas aeruginosa (PAO1) and Stapylococcus aureus (SA 113) were evaluated for total kill of each of the strains after 4 and 24 hours of exposure to the taurolidine-HA formulation. 20 μl of early phase culture of each strain was placed in 980 μl of each Hyaluronic Acid formulation. Samples of remaining bacteria concentrations were determined for the samples after 4 and 24 hours of exposure. Two controls (with and without HA), and HA gels with 3 different drug concentrations were evaluated. They were also evaluated against a known antimicrobial, gentamicin.

The test system of assay [2] is Stapylococcus aureus (SA 113). Nature of the assay: Solution exposure of antimicrobial hyaluronic acid hydrogels to living cultures (SA 113). As to conditions: 20 μl early phase culture in 980 μl formulation. The assay is classed as cell-based. The procedure: as §1, §2

With gentamicin, in assay [1] (4 hours of exposure), the “PA01 (4 hr) remaining bacteria concentration” value amounted to 0.00E+00. Further, the “PA01 (24 hr) remaining bacteria concentration” value in assay [1] (24 hours of exposure) was determined as 0.00E+00. In assay [2] (4 hours of exposure), the “SA113 (4 hr) remaining bacteria concentration” value is reported as 3.77E+02. Moreover, in assay [2] (24 hours of exposure), the “SA113 (24 hr) remaining bacteria concentration” value stood at 8.33E+00.
